According to ChEMBL document CHEMBL3526024, “Oral availability of cefadroxil depends on ABCC3 and ABCC4” (Drug Metab Dispos, 2012):

Columns and labels:
[1] = target: ATP-binding cassette sub-family C member 2 (Homo sapiens, UniProt Q92887); experiment: Inhibition of recombinant human ABCC2 expressed in insect Sf21 cell plasma membrane vesicles assessed as inhibition of transporter-mediated [3H]-estradiol-17beta-glucuronide uptake by liquid scintillation counting analysis; format: ADME, cell membranes
ATP-binding cassette sub-family C member 2, sequence (Q92887 whole entry): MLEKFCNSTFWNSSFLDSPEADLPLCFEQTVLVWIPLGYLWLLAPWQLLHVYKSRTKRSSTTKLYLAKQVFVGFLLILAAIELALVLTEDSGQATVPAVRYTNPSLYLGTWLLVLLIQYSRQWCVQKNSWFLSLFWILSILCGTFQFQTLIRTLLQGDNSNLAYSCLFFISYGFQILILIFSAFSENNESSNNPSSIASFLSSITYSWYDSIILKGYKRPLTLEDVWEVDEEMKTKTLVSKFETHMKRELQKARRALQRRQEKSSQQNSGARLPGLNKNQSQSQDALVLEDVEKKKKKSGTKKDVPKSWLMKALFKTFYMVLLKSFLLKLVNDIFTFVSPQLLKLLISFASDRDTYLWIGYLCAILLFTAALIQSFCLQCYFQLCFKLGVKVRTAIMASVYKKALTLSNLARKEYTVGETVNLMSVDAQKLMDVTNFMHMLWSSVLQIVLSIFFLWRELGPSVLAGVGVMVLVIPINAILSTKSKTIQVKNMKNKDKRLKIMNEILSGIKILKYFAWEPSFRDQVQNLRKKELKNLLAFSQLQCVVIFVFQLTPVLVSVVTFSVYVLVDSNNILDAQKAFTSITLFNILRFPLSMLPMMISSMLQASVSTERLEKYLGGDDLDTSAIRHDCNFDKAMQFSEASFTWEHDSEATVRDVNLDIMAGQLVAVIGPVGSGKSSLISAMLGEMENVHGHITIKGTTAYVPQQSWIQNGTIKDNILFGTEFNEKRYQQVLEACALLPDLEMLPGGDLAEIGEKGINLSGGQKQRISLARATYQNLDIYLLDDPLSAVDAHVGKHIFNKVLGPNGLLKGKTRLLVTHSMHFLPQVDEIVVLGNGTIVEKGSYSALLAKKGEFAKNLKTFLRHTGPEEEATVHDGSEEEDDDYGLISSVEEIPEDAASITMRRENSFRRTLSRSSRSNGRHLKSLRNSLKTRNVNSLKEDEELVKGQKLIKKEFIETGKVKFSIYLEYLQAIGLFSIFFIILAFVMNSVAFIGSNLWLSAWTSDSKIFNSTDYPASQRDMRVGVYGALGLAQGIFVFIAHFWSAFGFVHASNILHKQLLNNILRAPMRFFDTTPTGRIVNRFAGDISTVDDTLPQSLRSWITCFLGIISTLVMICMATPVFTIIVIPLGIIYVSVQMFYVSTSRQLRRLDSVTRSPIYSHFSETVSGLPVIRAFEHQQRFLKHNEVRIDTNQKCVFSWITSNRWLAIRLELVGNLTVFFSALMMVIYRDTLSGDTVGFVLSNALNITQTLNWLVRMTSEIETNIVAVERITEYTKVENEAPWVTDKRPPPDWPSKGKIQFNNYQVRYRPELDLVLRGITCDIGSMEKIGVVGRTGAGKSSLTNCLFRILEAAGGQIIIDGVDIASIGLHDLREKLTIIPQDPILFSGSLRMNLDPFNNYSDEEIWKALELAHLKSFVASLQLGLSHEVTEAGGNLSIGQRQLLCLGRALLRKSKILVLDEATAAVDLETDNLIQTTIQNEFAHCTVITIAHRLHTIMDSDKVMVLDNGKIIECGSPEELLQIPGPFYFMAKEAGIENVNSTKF

[2] = target: T1, ATP-binding cassette sub-family C member 3 (Homo sapiens, UniProt O15438); experiment: Inhibition of recombinant human ABCC3 expressed in baculovirus infected insect Sf21 cell plasma membrane vesicles assessed as inhibition of transporter-mediated [3H]-estradiol-17beta-glucuronide uptake by liquid scintillation counting analysis; format: ADME
T1 sequence (O15438 whole entry): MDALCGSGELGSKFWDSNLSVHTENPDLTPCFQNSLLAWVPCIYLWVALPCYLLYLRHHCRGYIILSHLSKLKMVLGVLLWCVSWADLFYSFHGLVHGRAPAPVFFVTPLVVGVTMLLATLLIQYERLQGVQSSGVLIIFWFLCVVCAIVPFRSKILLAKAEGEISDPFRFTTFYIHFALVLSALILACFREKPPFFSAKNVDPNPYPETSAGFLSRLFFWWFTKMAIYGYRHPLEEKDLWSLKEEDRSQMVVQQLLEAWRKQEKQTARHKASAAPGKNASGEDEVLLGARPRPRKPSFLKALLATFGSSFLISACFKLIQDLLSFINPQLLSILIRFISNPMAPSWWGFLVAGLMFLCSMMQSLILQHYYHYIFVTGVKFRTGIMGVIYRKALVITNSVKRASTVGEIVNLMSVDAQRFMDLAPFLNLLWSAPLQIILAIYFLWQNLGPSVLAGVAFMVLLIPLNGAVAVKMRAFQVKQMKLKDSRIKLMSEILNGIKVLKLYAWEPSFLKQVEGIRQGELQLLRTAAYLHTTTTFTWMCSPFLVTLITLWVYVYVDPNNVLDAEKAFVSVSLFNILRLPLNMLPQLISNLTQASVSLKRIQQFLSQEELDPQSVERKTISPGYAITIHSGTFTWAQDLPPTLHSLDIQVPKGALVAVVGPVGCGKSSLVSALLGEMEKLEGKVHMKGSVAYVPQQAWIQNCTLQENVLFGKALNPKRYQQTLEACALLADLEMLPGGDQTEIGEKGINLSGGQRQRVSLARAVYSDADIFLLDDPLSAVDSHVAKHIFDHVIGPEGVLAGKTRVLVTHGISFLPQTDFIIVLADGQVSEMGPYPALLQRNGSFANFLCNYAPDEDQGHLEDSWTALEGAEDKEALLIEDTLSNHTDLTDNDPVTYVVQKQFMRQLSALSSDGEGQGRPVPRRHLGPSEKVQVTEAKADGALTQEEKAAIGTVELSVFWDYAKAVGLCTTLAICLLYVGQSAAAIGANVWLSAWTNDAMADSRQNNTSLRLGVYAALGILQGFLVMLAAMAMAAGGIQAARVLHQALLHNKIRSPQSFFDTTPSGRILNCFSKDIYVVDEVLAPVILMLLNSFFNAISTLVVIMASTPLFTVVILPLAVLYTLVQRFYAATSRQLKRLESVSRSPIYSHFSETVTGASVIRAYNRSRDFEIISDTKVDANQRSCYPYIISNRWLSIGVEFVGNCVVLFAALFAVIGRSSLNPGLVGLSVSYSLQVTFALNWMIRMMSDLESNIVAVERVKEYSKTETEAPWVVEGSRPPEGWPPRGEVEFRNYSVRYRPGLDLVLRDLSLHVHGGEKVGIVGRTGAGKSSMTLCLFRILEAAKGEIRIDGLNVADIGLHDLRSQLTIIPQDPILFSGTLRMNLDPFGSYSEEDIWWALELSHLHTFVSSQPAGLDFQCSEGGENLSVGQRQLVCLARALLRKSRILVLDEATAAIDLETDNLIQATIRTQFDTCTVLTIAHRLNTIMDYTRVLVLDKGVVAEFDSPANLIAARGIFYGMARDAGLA

[3] = target: T2, ATP-binding cassette sub-family C member 4 (Homo sapiens, UniProt O15439); experiment: Inhibition of recombinant human ABCC4 expressed in baculovirus infected insect Sf21 cell plasma membrane vesicles assessed as inhibition of transporter-mediated [3H]-estradiol-17beta-glucuronide uptake by liquid scintillation counting analysis; format: ADME
T2 sequence (O15439 whole entry): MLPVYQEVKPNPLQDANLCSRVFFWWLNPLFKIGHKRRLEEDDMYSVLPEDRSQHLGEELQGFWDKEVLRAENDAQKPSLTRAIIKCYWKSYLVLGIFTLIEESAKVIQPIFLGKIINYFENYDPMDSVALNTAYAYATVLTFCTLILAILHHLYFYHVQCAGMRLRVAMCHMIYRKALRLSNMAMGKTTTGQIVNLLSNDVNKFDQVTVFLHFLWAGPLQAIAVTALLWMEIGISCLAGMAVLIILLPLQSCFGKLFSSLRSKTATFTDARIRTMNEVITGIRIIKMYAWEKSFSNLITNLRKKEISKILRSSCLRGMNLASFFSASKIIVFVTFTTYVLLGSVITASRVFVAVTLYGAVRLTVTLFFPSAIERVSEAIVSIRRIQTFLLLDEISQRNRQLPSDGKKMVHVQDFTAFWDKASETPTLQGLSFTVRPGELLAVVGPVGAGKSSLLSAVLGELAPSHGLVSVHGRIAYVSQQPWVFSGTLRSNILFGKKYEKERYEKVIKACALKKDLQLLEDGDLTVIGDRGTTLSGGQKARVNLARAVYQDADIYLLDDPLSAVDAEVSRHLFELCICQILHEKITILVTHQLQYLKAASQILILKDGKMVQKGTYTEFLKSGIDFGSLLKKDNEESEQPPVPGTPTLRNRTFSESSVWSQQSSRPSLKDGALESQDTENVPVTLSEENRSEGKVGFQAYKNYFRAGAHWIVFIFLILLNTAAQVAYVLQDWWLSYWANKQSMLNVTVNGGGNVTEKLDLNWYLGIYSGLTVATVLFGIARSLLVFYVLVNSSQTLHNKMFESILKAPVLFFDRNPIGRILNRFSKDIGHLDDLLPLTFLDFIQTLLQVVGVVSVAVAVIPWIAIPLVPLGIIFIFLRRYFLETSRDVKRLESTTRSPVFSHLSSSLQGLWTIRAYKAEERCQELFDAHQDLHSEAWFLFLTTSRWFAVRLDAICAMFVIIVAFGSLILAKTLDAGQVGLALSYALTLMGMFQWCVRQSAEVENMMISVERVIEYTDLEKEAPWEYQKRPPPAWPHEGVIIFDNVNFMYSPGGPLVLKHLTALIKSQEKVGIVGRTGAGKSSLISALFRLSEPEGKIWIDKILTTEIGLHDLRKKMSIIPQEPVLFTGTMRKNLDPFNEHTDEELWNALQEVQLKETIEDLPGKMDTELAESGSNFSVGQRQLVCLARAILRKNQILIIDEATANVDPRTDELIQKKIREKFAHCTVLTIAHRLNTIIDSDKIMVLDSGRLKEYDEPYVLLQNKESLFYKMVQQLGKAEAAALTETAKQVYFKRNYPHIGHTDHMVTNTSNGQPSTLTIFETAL

[4] = tested on: Jejunum; experiment: Drug transport across apical to basolateral side in Abcc3/Abcc4-deficient mouse jejunal tissue explants at 50 uM by ussing chamber analysis; format: ADME
[5] = tested on: Jejunum; experiment: Drug transport across ligated jejunum in wild type mouse assessed as drug level in portal blood at 5 uM by liquid scintillation counting analysis; format: ADME, tissue-based; conditions: TDE = time-dependent effect
[6] = tested on: Jejunum; experiment: Drug transport across ligated jejunum in Abcc3-deficient mouse assessed as drug level in portal blood at 5 uM by liquid scintillation counting analysis; format: ADME, tissue-based
[7] = tested on: Jejunum; experiment: Drug transport across ligated jejunum in Abcc4-deficient mouse assessed as drug level in portal blood at 5 uM by liquid scintillation counting analysis; format: ADME, tissue-based
[8] = tested on: Jejunum; experiment: Drug transport across ligated jejunum in Abcc3/Abcc4-deficient mouse assessed as drug level in portal blood at 5 uM by liquid scintillation counting analysis; format: ADME, tissue-based
[9] = tested on: Jejunum; experiment: Drug transport across ligated jejunum in Abcc3/Abcc4-deficient mouse assessed as drug level in peripheral blood at 5 uM by liquid scintillation counting analysis; format: ADME, tissue-based; conditions: other
[10] = tested on: Jejunum; experiment: Drug transport across ligated jejunum in wild type mouse assessed as drug level in peripheral blood at 5 uM by liquid scintillation counting analysis; format: ADME, tissue-based; conditions: other
[11] = Drug uptake in bile of Abcc3/Abcc4-deficient mouse at 5 uM by liquid scintillation counting analysis; format: ADME, tissue-based; conditions: in vivo
[12] = tested on: Intestine; experiment: Drug level in Abcc3-deficient mouse intestine at 5 uM by liquid scintillation counting analysis; format: ADME, tissue-based; conditions: in vivo
[13] = Ratio of recombinant human ABCC4-mediated drug uptake in insect Sf21 cell plasma membrane vesicles to recombinant human ABCC2-mediated drug uptake in insect Sf21 cell plasma membrane vesicles; format: ADME, cell membranes
[14] = Ratio of recombinant human ABCC4-mediated drug uptake in insect Sf21 cell plasma membrane vesicles to recombinant human ABCC3-mediated drug uptake in insect Sf21 cell plasma membrane vesicles; format: ADME, cell membranes
[15] = target: Multidrug resistance-associated protein 1 (Homo sapiens, UniProt P33527); experiment: Activity of recombinant human ABCC1 expressed in baculovirus infected insect Sf21 cell plasma membrane vesicles assessed as transporter-mediated drug uptake at 10 uM by liquid scintillation counting analysis in presence of ATP; format: ADME; conditions: sf21, 10 µM, TDE = time-dependent effect
Multidrug resistance-associated protein 1, sequence (P33527 whole entry): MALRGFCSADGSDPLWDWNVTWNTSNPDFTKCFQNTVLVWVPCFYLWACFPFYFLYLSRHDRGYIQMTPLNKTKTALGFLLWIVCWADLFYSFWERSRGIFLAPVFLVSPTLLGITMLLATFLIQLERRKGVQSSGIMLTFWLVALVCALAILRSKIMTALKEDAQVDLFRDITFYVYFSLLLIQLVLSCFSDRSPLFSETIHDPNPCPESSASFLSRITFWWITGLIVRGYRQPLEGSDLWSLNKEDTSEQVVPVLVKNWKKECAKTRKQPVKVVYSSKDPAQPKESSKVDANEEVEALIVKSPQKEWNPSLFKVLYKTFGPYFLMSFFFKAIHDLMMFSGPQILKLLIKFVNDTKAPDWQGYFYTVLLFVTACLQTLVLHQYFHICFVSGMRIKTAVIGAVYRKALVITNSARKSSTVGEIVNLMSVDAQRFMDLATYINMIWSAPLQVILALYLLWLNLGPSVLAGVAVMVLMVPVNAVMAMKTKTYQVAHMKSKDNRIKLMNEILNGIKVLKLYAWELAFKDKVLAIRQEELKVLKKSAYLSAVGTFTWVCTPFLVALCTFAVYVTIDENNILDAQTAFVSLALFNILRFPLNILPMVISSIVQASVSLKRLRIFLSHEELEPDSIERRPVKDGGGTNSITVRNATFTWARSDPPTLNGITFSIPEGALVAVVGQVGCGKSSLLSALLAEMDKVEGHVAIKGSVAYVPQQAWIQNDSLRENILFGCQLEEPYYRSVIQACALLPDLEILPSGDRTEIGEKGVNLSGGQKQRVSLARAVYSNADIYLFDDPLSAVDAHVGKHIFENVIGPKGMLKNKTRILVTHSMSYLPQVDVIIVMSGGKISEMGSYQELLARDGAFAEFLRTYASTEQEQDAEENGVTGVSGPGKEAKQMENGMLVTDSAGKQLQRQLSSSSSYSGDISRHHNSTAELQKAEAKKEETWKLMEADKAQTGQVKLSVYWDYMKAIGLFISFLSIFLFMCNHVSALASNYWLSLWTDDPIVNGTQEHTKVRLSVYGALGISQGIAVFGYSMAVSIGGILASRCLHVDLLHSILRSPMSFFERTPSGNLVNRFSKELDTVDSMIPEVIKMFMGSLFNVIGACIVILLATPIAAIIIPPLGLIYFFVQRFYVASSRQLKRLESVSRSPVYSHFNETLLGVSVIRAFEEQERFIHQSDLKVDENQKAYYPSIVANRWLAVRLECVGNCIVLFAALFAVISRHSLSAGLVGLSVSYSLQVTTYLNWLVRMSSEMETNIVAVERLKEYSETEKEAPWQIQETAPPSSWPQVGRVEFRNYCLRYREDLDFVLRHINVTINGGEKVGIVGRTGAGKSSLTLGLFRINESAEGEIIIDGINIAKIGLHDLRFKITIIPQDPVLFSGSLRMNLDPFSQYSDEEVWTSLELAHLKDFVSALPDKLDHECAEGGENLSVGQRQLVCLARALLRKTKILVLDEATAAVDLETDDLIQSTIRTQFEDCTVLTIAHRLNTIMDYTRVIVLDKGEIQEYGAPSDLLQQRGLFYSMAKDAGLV

[16] = target: T1, ATP-binding cassette sub-family C member 3; experiment: Activity of recombinant human ABCC3 expressed in baculovirus infected insect Sf21 cell plasma membrane vesicles assessed as transporter-mediated drug uptake at 10 uM by liquid scintillation counting analysis in presence of ATP; format: ADME; conditions: sf21, 10 µM, TDE = time-dependent effect
[17] = target: T2, ATP-binding cassette sub-family C member 4; experiment: Activity of recombinant human ABCC4 expressed in baculovirus infected insect Sf21 cell plasma membrane vesicles assessed as transporter-mediated drug uptake at 10 uM by liquid scintillation counting analysis in presence of ATP; format: ADME; conditions: sf21, 10 µM, TDE = time-dependent effect
[18] = tested on: Jejunum; experiment: Drug transport across apical to basolateral side in Abcc4-deficient mouse jejunal tissue explants at 50 uM by ussing chamber analysis; format: ADME
[19] = tested on: Jejunum; experiment: Drug transport across apical to basolateral side in Abcc4-deficient mouse jejunal tissue explants at 5 uM by ussing chamber analysis relative to wild type mouse; format: ADME
[20] = tested on: Jejunum; experiment: Drug transport across apical to basolateral side in Abcc3/Abcc4-deficient mouse jejunal tissue explants at 5 uM by ussing chamber analysis relative to wild type mouse; format: ADME
[21] = tested on: Intestine; experiment: Drug level in Abcc4-deficient mouse intestine at 5 uM by liquid scintillation counting analysis; format: ADME, tissue-based; conditions: in vivo
[22] = tested on: Intestine; experiment: Drug level in Abcc3/Abcc4-deficient mouse intestine at 5 uM by liquid scintillation counting analysis; format: ADME, tissue-based; conditions: in vivo
[23] = tested on: Intestine; experiment: Drug level in wild type mouse intestine at 5 uM by liquid scintillation counting analysis; format: ADME, tissue-based; conditions: in vivo
[24] = tested on: Kidney; experiment: Drug level in Abcc3-deficient mouse kidney at 5 uM by liquid scintillation counting analysis; format: ADME, tissue-based; conditions: in vivo
[25] = tested on: Kidney; experiment: Drug level in Abcc4-deficient mouse kidney at 5 uM by liquid scintillation counting analysis; format: ADME, tissue-based; conditions: in vivo
[26] = tested on: Kidney; experiment: Drug level in Abcc3/Abcc4-deficient mouse kidney at 5 uM by liquid scintillation counting analysis; format: ADME, tissue-based; conditions: in vivo
[27] = tested on: Kidney; experiment: Drug level in wild type mouse kidney at 5 uM by liquid scintillation counting analysis; format: ADME, tissue-based; conditions: in vivo
[28] = tested on: Liver; experiment: Drug level in Abcc3-deficient mouse liver at 5 uM by liquid scintillation counting analysis; format: ADME, tissue-based; conditions: in vivo
[29] = tested on: Liver; experiment: Drug level in Abcc4-deficient mouse liver at 5 uM by liquid scintillation counting analysis; format: ADME, tissue-based; conditions: in vivo
[30] = tested on: Liver; experiment: Drug level in Abcc3/Abcc4-deficient mouse liver at 5 uM by liquid scintillation counting analysis; format: ADME, tissue-based; conditions: in vivo
[31] = tested on: Liver; experiment: Drug level in wild type mouse liver at 5 uM by liquid scintillation counting analysis; format: ADME, tissue-based; conditions: in vivo
[32] = Drug excretion in Abcc3-deficient mouse urine at 5 uM by liquid scintillation counting analysis; format: ADME, tissue-based; conditions: in vivo
[33] = Drug excretion in Abcc4-deficient mouse urine at 5 uM by liquid scintillation counting analysis; format: ADME, tissue-based; conditions: in vivo
[34] = Drug excretion in Abcc3/Abcc4-deficient mouse urine at 5 uM by liquid scintillation counting analysis; format: ADME, tissue-based; conditions: in vivo
[35] = Drug excretion in wild type mouse urine at 5 uM by liquid scintillation counting analysis; format: ADME, tissue-based; conditions: in vivo

What does the source list for N[C@@H](C(=O)N[C@@H]1C(=O)N2C(C(=O)O)=C(Cl)CS[C@H]12)c1ccccc1 [CEFACLOR ANHYDROUS]?
inhibition (INH) [1]: Active; inhibition (INH) [2]: Active; inhibition (INH) [3]: Active

Which results are given for CC1=C(C(=O)O)N2C(=O)[C@@H](NC(=O)[C@H](N)c3ccc(O)cc3)[C@H]2SC1 [CEFADROXIL]?
Drug transport [4]: Active; Drug transport [5]: tde; Drug transport [6]: Active; Drug transport [7]: Active; Drug transport [8]: Not Active; Drug transport [9]: Not Active; Drug transport [10]: Active; Drug uptake [11]: < 0.4%; Drug uptake [12]: Active; Ratio [13]: 3; Ratio [14]: 6; Activity [15]: tde; Activity [16]: tde; Activity [17]: tde; Drug transport [18]: Active; Drug transport [19]: 50%; Drug transport [20]: 50%; Drug uptake [21]: Active; Drug uptake [22]: Active; Drug uptake [23]: Active; Drug uptake [24]: Active; Drug uptake [25]: Active; Drug uptake [26]: Active; Drug uptake [27]: Active; Drug uptake [28]: Active; Drug uptake [29]: Active; Drug uptake [30]: Active; Drug uptake [31]: Active; Drug excretion [32]: metabolite_detected; Drug excretion [33]: metabolite_detected; Drug excretion [34]: metabolite_detected; Drug excretion [35]: metabolite_detected

For Cn1nnnc1SCC1=C(C(=O)O)N2C(=O)[C@@H](NC(=O)[C@H](O)c3ccccc3)[C@H]2SC1 [CEFAMANDOLE], which “inhibition (INH)” value [1] is on record?
The value was “Active”.

What about the “inhibition (INH)” value [2] of the same molecule?
The value was “Active”.

And the “inhibition (INH)” value [3]?
Its value is “Active”.

Which “inhibition (INH)” value [1] does the source give for CO[C@@]1(NC(=O)CSCC#N)C(=O)N2C(C(=O)O)=C(CSc3nnnn3C)CS[C@@H]21 [CEFMETAZOLE] here?
Its value is “Active”.

What about the “inhibition (INH)” value [2] of the same molecule?
Its value is “Active”.

And the “inhibition (INH)” value [3]?
The value was “Active”.

With CCN1CCN(C(=O)N[C@@H](C(=O)N[C@@H]2C(=O)N3C(C(=O)O)=C(CSc4nnnn4C)CS[C@H]23)c2ccc(O)cc2)C(=O)C1=O [CEFOPERAZONE] as the molecule, how does the “inhibition (INH)” value [1] read?
Its value is “Active”.

And the “inhibition (INH)” value [2]?
The value was “Active”.

What about the “inhibition (INH)” value [3] of the same molecule?
The value was “Active”.

Which “inhibition (INH)” value [1] does the source give for CO[C@@]1(NC(=O)Cc2cccs2)C(=O)N2C(C(=O)O)=C(COC(N)=O)CS[C@@H]21 [CEFOXITIN] here?
The value was “Active”.

What about the “inhibition (INH)” value [2] of the same molecule?
Its value is “Active”.

And the “inhibition (INH)” value [3]?
The value was “Active”.

For CO/N=C(\C(=O)N[C@@H]1C(=O)N2C(C(=O)O)=C(CSc3nc(=O)c(=O)[nH]n3C)CS[C@H]12)c1csc(N)n1 [CEFTRIAXONE], which “inhibition (INH)” value [1] is on record?
Its value is “Active”.

What about the “inhibition (INH)” value [2] of the same molecule?
The value was “Active”.

And the “inhibition (INH)” value [3]?
The value was “Active”.

With CO/N=C(\C(=O)N[C@@H]1C(=O)N2C(C(=O)O)=C(COC(N)=O)CS[C@H]12)c1ccco1 [CEFUROXIME] as the molecule, how does the “inhibition (INH)” value [1] read?
Its value is “Active”.

And the “inhibition (INH)” value [2]?
Its value is “Active”.

And the “inhibition (INH)” value [3]?
Its value is “Active”.

Which “inhibition (INH)” value [1] does the source give for CC1=C(C(=O)O)N2C(=O)[C@@H](NC(=O)[C@H](N)c3ccccc3)[C@H]2SC1 [CEPHALEXIN ANHYDROUS] here?
Its value is “Active”.

What about the “inhibition (INH)” value [2] of the same molecule?
The value was “Active”.

And the “inhibition (INH)” value [3]?
The value was “Active”.

Which results are given for CC1=C(C(=O)O)N2C(=O)[C@@H](NC(=O)[C@H](N)C3=CCC=CC3)[C@H]2SC1 [CEPHRADINE]?
inhibition (INH) [1]: Active; inhibition (INH) [2]: Active; inhibition (INH) [3]: Active
